From ChEMBL document CHEMBL1201862, “PubChem BioAssay data set” (2004)
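Assay format: 96-well plates, 48-hour exposure. Here, GI50 denotes the concentration required for 50% inhibition of growth.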 The source made the active and inactive calls. Rule as the data show it: active = GI50 up to about 1.1 µM and inactive = higher.

Legend:
Test in all cases: inhibition of tumour cell growth, NCI panel, 48 h
U-251 = tested on: U-251
UACC-62 = tested on: UACC-62
786-0 = tested on: 786-0
A549 = tested on: A549
SN12C = tested on: SN12C
MOLT-4 = tested on: MOLT-4
T47D = tested on: T47D
PC-3 = tested on: PC-3
DU-145 = tested on: DU-145
LOX IMVI = tested on: LOX IMVI
CAKI-1 = tested on: CAKI-1
EKVX = tested on: EKVX
SF-295 = tested on: SF-295
SNB-19 = tested on: SNB-19
M14 = tested on: M14
COLO 205 = tested on: COLO 205
NCI/ADR-RES = tested on: NCI/ADR-RES
IGROV-1 = tested on: IGROV-1
HCT-15 = tested on: HCT-15

`O=C(c1nc2ccc([N+](=O)[O-])cc2nc1O)C(O)c1ccc2c(c1)OCO2` (stereo not drawn) was tested, and the GI50 (U-251) was > 100 µM (inactive), the GI50 (UACC-62) was 96.4 µM (inactive) and the GI50 (786-0) was > 100 µM (inactive). The GI50 (A549) was > 100 µM (inactive), the GI50 (SN12C) was > 100 µM (inactive) and the GI50 (MOLT-4) was > 100 µM (inactive). For the same compound, the GI50 (T47D) was > 100 µM (inactive), the GI50 (PC-3) was > 100 µM (inactive) and the GI50 (DU-145) was > 100 µM (inactive). For the same compound, the GI50 (LOX IMVI) was > 67.9 µM (inactive), the GI50 (CAKI-1) was > 96.2 µM (inactive) and the GI50 (EKVX) was > 100 µM (inactive). For the same compound, the GI50 (SF-295) was > 52.5 µM (inactive), the GI50 (SNB-19) was > 100 µM (inactive) and the GI50 (M14) was > 94 µM (inactive). For the same compound, the GI50 (COLO 205) was > 96.4 µM (inactive), the GI50 (NCI/ADR-RES) was > 100 µM (inactive) and the GI50 (IGROV-1) was > 100 µM (inactive). For the same compound, the GI50 (HCT-15) was greater than 62.2 µM.
For `O=P(O)(O)CC1OC(CO)C(O)C1O` (stereo not drawn), the GI50 (U-251) was > 100 µM (inactive), the GI50 (UACC-62) was > 100 µM (inactive) and the GI50 (786-0) was > 100 µM (inactive). For the same compound, the GI50 (A549) was > 100 µM (inactive), the GI50 (SN12C) was > 100 µM (inactive) and the GI50 (MOLT-4) was > 100 µM (inactive). The GI50 (T47D) was > 100 µM (inactive), the GI50 (PC-3) was > 100 µM (inactive) and the GI50 (DU-145) was > 100 µM (inactive). For the same compound, the GI50 (LOX IMVI) was > 100 µM (inactive), the GI50 (CAKI-1) was > 100 µM (inactive) and the GI50 (EKVX) was > 100 µM (inactive). For the same compound, the GI50 (SF-295) was > 100 µM (inactive), the GI50 (SNB-19) was > 100 µM (inactive) and the GI50 (M14) was > 100 µM (inactive). For the same compound, the GI50 (COLO 205) was > 100 µM (inactive), the GI50 (NCI/ADR-RES) was > 100 µM (inactive) and the GI50 (IGROV-1) was > 100 µM (inactive). The GI50 (HCT-15) was greater than 100 µM.
`COc1cc(C2c3cc4c(cc3OC(NC3CCCCC3)C2C)OCO4)cc(OC)c1OC` (stereo not drawn) was tested, and the GI50 (U-251) was 0.467 µM (active), the GI50 (UACC-62) was 0.379 µM (active) and the GI50 (786-0) was 0.493 µM (active). The GI50 (A549) was 0.885 µM (active), the GI50 (SN12C) was 0.687 µM (active) and the GI50 (MOLT-4) was 0.48 µM (active). For the same compound, the GI50 (T47D) was 0.339 µM (active), the GI50 (PC-3) was 0.382 µM (active) and the GI50 (DU-145) was 0.478 µM (active). For the same compound, the GI50 (LOX IMVI) was 0.617 µM (active), the GI50 (CAKI-1) was 0.409 µM (active) and the GI50 (EKVX) was 4.47 µM (inactive). The GI50 (SF-295) was 0.203 µM (active), the GI50 (SNB-19) was 0.45 µM (active) and the GI50 (M14) was 0.508 µM (active). For the same compound, the GI50 (COLO 205) was 0.241 µM (active), the GI50 (NCI/ADR-RES) was 0.296 µM (active) and the GI50 (IGROV-1) was 0.665 µM (active). For the same compound, the GI50 (HCT-15) was 0.543 µM.
With `Cc1ccc(C(=O)/C=C(\O)C(=O)NN=C(c2ccccc2)c2ccccc2)cc1` the GI50 (U-251) was 46.2 µM (inactive), the GI50 (UACC-62) was 68.9 µM (inactive) and the GI50 (786-0) was 28.4 µM (inactive). The GI50 (A549) was 41.2 µM (inactive), the GI50 (MOLT-4) was 58.9 µM (inactive) and the GI50 (T47D) was > 100 µM (inactive). The GI50 (PC-3) was 40.2 µM (inactive), the GI50 (DU-145) was > 100 µM (inactive) and the GI50 (LOX IMVI) was 12.2 µM (inactive). The GI50 (CAKI-1) was > 100 µM (inactive), the GI50 (EKVX) was > 100 µM (inactive) and the GI50 (SF-295) was 66.8 µM (inactive). For the same compound, the GI50 (SNB-19) was 58.9 µM (inactive), the GI50 (M14) was > 100 µM (inactive) and the GI50 (COLO 205) was 40.4 µM (inactive). For the same compound, the GI50 (NCI/ADR-RES) was 30.5 µM (inactive), the GI50 (IGROV-1) was 62.7 µM (inactive) and the GI50 (HCT-15) was 39 µM.
`COc1ccc(/C=C2\NC(=S)N(/C=C3\C(=O)Oc4ccccc4C3=O)C2=O)cc1OC` was tested, and the GI50 (U-251) was > 100 µM (inactive), the GI50 (UACC-62) was > 100 µM (inactive) and the GI50 (786-0) was > 100 µM (inactive). For the same compound, the GI50 (A549) was > 100 µM (inactive), the GI50 (SN12C) was > 100 µM (inactive) and the GI50 (MOLT-4) was > 100 µM (inactive). For the same compound, the GI50 (T47D) was > 100 µM (inactive), the GI50 (PC-3) was > 100 µM (inactive) and the GI50 (DU-145) was > 100 µM (inactive). The GI50 (LOX IMVI) was > 100 µM (inactive), the GI50 (CAKI-1) was > 100 µM (inactive) and the GI50 (EKVX) was 54.5 µM (inactive). For the same compound, the GI50 (SF-295) was > 100 µM (inactive), the GI50 (SNB-19) was > 100 µM (inactive) and the GI50 (M14) was > 100 µM (inactive). For the same compound, the GI50 (COLO 205) was > 100 µM (inactive), the GI50 (NCI/ADR-RES) was > 100 µM (inactive) and the GI50 (IGROV-1) was 78.3 µM (inactive). It also gave a GI50 (HCT-15) of 93.5 µM.
With `NS(=O)(=O)c1cc2c(cc1Cl)N=C(CCC(=O)O)NS2(=O)=O` the GI50 (U-251) was > 100 µM (inactive), the GI50 (UACC-62) was > 100 µM (inactive) and the GI50 (786-0) was > 100 µM (inactive). For the same compound, the GI50 (A549) was > 100 µM (inactive), the GI50 (SN12C) was > 100 µM (inactive) and the GI50 (T47D) was > 100 µM (inactive). The GI50 (PC-3) was > 100 µM (inactive), the GI50 (DU-145) was > 100 µM (inactive) and the GI50 (LOX IMVI) was > 100 µM (inactive). For the same compound, the GI50 (CAKI-1) was > 100 µM (inactive), the GI50 (EKVX) was > 100 µM (inactive) and the GI50 (SF-295) was > 100 µM (inactive). The GI50 (SNB-19) was > 100 µM (inactive), the GI50 (M14) was > 100 µM (inactive) and the GI50 (COLO 205) was > 100 µM (inactive). For the same compound, the GI50 (NCI/ADR-RES) was > 100 µM (inactive), the GI50 (IGROV-1) was > 100 µM (inactive) and the GI50 (HCT-15) was greater than 100 µM.
For `CN(N=O)N1C(=O)SCC(c2ccccc2)(c2ccccc2)C1=O`, the GI50 (U-251) was 28.4 µM (inactive), the GI50 (UACC-62) was 37.8 µM (inactive) and the GI50 (786-0) was 46.6 µM (inactive). For the same compound, the GI50 (A549) was 7.98 µM (inactive), the GI50 (SN12C) was 31.6 µM (inactive) and the GI50 (MOLT-4) was 61.8 µM (inactive). The GI50 (T47D) was 67.8 µM (inactive), the GI50 (PC-3) was 42.4 µM (inactive) and the GI50 (DU-145) was 91 µM (inactive). For the same compound, the GI50 (LOX IMVI) was 30 µM (inactive), the GI50 (CAKI-1) was 46.3 µM (inactive) and the GI50 (EKVX) was 34.7 µM (inactive). For the same compound, the GI50 (SF-295) was 35.6 µM (inactive), the GI50 (SNB-19) was 57.9 µM (inactive) and the GI50 (M14) was 37.5 µM (inactive). The GI50 (COLO 205) was 25.3 µM (inactive), the GI50 (NCI/ADR-RES) was 34.4 µM (inactive) and the GI50 (HCT-15) was 41.7 µM.
For `CS(=O)(=O)Nc1ccc2ccccc2c1-c1c(NS(C)(=O)=O)ccc2ccccc12`, the GI50 (U-251) was > 25 µM (inactive), the GI50 (786-0) was > 15.5 µM (inactive) and the GI50 (A549) was > 25 µM (inactive). The GI50 (SN12C) was > 25 µM (inactive), the GI50 (MOLT-4) was > 25 µM (inactive) and the GI50 (T47D) was > 25 µM (inactive). The GI50 (PC-3) was > 25 µM (inactive), the GI50 (DU-145) was > 25 µM (inactive) and the GI50 (LOX IMVI) was > 25 µM (inactive). For the same compound, the GI50 (CAKI-1) was > 25 µM (inactive), the GI50 (EKVX) was > 25 µM (inactive) and the GI50 (SF-295) was > 25 µM (inactive). For the same compound, the GI50 (SNB-19) was > 25 µM (inactive), the GI50 (M14) was > 25 µM (inactive) and the GI50 (COLO 205) was > 25 µM (inactive). For the same compound, the GI50 (NCI/ADR-RES) was > 25 µM (inactive), the GI50 (IGROV-1) was > 25 µM (inactive) and the GI50 (HCT-15) was greater than 25 µM.
